# Results reported in patent US4863902A, “Treatment of cancer” (Wakunaga Seiyaku Kabushiki Kaisha, priority 1985, dated 1989).
# Tests used:
# [1] = tested on: Colon adenocarcinoma 38 (mouse colon adenocarcinoma); assay: Tumor weight of transplanted Colon adenocarcinoma 38 in C57BL/6 mice; assay type: in vivo; details: for tumor growth inhibiting effect, same experiment as Experimental Example 19: used in place of 5-FU in combination with FGF; for antitumor effect of (a) + (b) (quantity not headed; method of Experimental Example 4): Table 21
# Method: Colon adenocarcinoma 38 (mouse colon adenocarcinoma) was minced into pieces and about 0.1 to 0.2 ml thereof was transplanted subcutaneously on the right side of mouse abdomen by a cell transplanting needle (trocker). Eleven days after transplantation, the size of tumor, namely longer diameter (a mm) and shorter diameter (b mm) of tumor were measured and the tumor weight was calculated according to the formula shown below [Instruction 14 (NCI) 1980].
# Tumor weight (mg)=ab^2 /2
# In the Table, days indicate the experimental days with the day of compound administration being as the day 1, and the tumor weight immediately before administration of compound of day 1 is made 100. The respective values show the average value ± standard error of case numbers of 10 to 20, in the Table, the marks of (*), * and *** indicate the statistical significance difference of the combined administration group relative to the 5-FU single administration group (the definition of P is as defined above).
# [2] = tested on: mouse ovarian tumor M5076; assay: Tumor weight of solid tumor of mouse ovarian tumor in BDF1 mice; assay type: in vivo; details: for Tumor weight (day 1 = 100): Table 9, cisplatin 5 mg/Kg, hEGF, [Leu^21 ]-hEGF or hEGF-II 100 μg/Kg subcutaneous, average ± standard error
# Method: BDF1 male mice were employed. The feeding conditions were the same as in Experimental Example 1.
# Mouse ovarian tumor M5076 was transplanted subcutaneously at the axialla of mouse in 1-2×10^6 cells per mouse. 12 days after transplantation, the size of tumor was measured according to the same method as in Experimental Example 1 (Colon 26) and the tumor weight was calculated.
# The grouping operation on initiation of Experiments was conducted in the same manner as in Experimental Example 1. The compounds were administered in the same manner as in Experimental Example 9.
# The experiment was carried out in the samme manner as in Experimental Examples 1, 7 and as in Experimental Example 17 for others.
# [3] = Table 12, day 4 after compound administration, weight before administration = 100, Tegafur 400, 5-FU 150, Mitomycin-C 5, Cisplatin 5 mg/Kg, hIGF-II 50 μg/Kg subcutaneous, average ± standard error of 8-10 mice
# [4] = Table 13, same method as Experimental Example 20 (day 4), Tegafur 400, Mitomycin-C 5, Adriamycin 10, Cisplatin 5 mg/Kg, Insulin 50 m μg/Kg subcutaneous
# [5] = Table 14, hTGFα 100 μg/10 ml/Kg with 5-FU, Tegafur, Mitomycin-C, Adriamycin or Cisplatin, as described for Table 12
# [6] = Table 15, day 4 after compound administration, hTGFβ and hEGF 100 μg/Kg with each compound having antitumor action
# [7] = (a) Adriamycin, Mixed injection
# [8] = (a) Adriamycin, Separate injection
# [9] = (a) Cisplatin, Separate injection
# [10] = (a) Tegafur, Separate injection
Compound,"Tumor weight ratio(%) [1, 3]","Tumor weight ratio(%) [1, 4]","Tumor weight ratio(%) [1, 5]","Tumor weight ratio(%) [1, 6]","tumor growth inhibiting effect, same experiment as Experimental Example 19 [1]","antitumor effect of (a) + (b) (quantity not headed; method of Experimental Example 4) [1, 7]","antitumor effect of (a) + (b) (quantity not headed; method of Experimental Example 4) [1, 8]","antitumor effect of (a) + (b) (quantity not headed; method of Experimental Example 4) ([1]; (a) Cisplatin, Mixed injection)","antitumor effect of (a) + (b) (quantity not headed; method of Experimental Example 4) [1, 9]","antitumor effect of (a) + (b) (quantity not headed; method of Experimental Example 4) ([1]; (a) Tegafur, Mixed injection)","antitumor effect of (a) + (b) (quantity not headed; method of Experimental Example 4) [1, 10]",other results
"CO[C@@]12[C@H](COC(N)=O)C3=C(C(=O)C(C)=C(N)C3=O)N1C[C@@H]1N[C@@H]12 [MMC, mitomycin C]",95.8 ± 5.5%,95.8 ± 5.5%,95.8 ± 5.5%,101.1 ± 8.3%,the same results,,,,,,,"Tumor weight (day 1 = 100) ([1]; Table 8, day 2, MMC 5 mg/Kg, hEGF, hEGF-II or [Leu^21 ]-hEGF 100 μg/Kg subcutaneous on day 1 and day 5, average ± standard error of 6 mice): 130.8 ± 8.5; Tumor weight (day 1 = 100) ([1]; Table 8, day 3, MMC 5 mg/Kg, hEGF, hEGF-II or [Leu^21 ]-hEGF 100 μg/Kg subcutaneous on day 1 and day 5, average ± standard error of 6 mice): 106.1 ± 9.4; Tumor weight (day 1 = 100) ([1]; Table 8, day 4, MMC 5 mg/Kg, hEGF, hEGF-II or [Leu^21 ]-hEGF 100 μg/Kg subcutaneous on day 1 and day 5, average ± standard error of 6 mice): 95.8 ± 5.5; Tumor weight (day 1 = 100) ([1]; Table 8, day 5, MMC 5 mg/Kg, hEGF, hEGF-II or [Leu^21 ]-hEGF 100 μg/Kg subcutaneous on day 1 and day 5, average ± standard error of 6 mice): 98.6 ± 3.9; Tumor weight (day 1 = 100) ([1]; Table 8, day 6, MMC 5 mg/Kg, hEGF, hEGF-II or [Leu^21 ]-hEGF 100 μg/Kg subcutaneous on day 1 and day 5, average ± standard error of 6 mice): 160.7 ± 10.9; Tumor weight (day 1 = 100) ([1]; Table 8, day 7, MMC 5 mg/Kg, hEGF, hEGF-II or [Leu^21 ]-hEGF 100 μg/Kg subcutaneous on day 1 and day 5, average ± standard error of 6 mice): 150.8 ± 15.9; Tumor weight (day 1 = 100) ([1]; Table 8, day 8, MMC 5 mg/Kg, hEGF, hEGF-II or [Leu^21 ]-hEGF 100 μg/Kg subcutaneous on day 1 and day 5, average ± standard error of 6 mice): 263.6 ± 30.8; Tumor weight (day 1 = 100) ([1]; Table 8, day 9, MMC 5 mg/Kg, hEGF, hEGF-II or [Leu^21 ]-hEGF 100 μg/Kg subcutaneous on day 1 and day 5, average ± standard error of 6 mice): 308.7 ± 54.0"
"N.N.[Cl][Pt][Cl] [Cisplatin, cisplatin]",145.6 ± 9.1%,145.6 ± 9.1%,145.6 ± 9.1%,139.8 ± 9.9%,the same results,,,,,,,Tumor weight (day 1 = 100) ([2]; day 2): 126.4 ± 9.0; Tumor weight (day 1 = 100) ([2]; day 3): 125.49 ± 8.3; Tumor weight (day 1 = 100) ([2]; day 4): 136.9 ± 5.2; Tumor weight (day 1 = 100) ([2]; day 5): 143.6 ± 14.5; Tumor weight (day 1 = 100) ([2]; day 6): 192.0 ± 20.6
"O=c1[nH]c(=O)n(C2CCCO2)cc1F (stereo not shown) [Tegafur, 1-(2-tetrahydrofuryl)-5-fluorouracil]",95.2 ± 15.4%,95.2 ± 15.4%,95.2 ± 15.4%,118.0 ± 9.8%,,,,,,,,"Tumor weight (day 1 = 100) ([1]; Table 6, day 2, Tegafur 400 mg/Kg, hEGF 100 μg/Kg subcutaneous on day 1 and day 4, average ± standard error of 7 mice): 89.0 ± 10.5; Tumor weight (day 1 = 100) ([1]; Table 6, day 3, Tegafur 400 mg/Kg, hEGF 100 μg/Kg subcutaneous on day 1 and day 4, average ± standard error of 7 mice): 102.1 ± 13.5; Tumor weight (day 1 = 100) ([1]; Table 6, day 4, Tegafur 400 mg/Kg, hEGF 100 μg/Kg subcutaneous on day 1 and day 4, average ± standard error of 7 mice): 105.5 ± 18.4; Tumor weight (day 1 = 100) ([1]; Table 6, day 5, Tegafur 400 mg/Kg, hEGF 100 μg/Kg subcutaneous on day 1 and day 4, average ± standard error of 7 mice): 104.2 ± 22.6; Tumor weight (day 1 = 100) ([1]; Table 6, day 6, Tegafur 400 mg/Kg, hEGF 100 μg/Kg subcutaneous on day 1 and day 4, average ± standard error of 7 mice): 94.5 ± 16.9; Tumor weight (day 1 = 100) ([1]; Table 6, day 7, Tegafur 400 mg/Kg, hEGF 100 μg/Kg subcutaneous on day 1 and day 4, average ± standard error of 7 mice): 131.4 ± 23.3; Tumor weight (day 1 = 100) ([1]; Table 6, day 8, Tegafur 400 mg/Kg, hEGF 100 μg/Kg subcutaneous on day 1 and day 4, average ± standard error of 7 mice): 143.7 ± 20.6; Tumor weight ratio(%) ([1]; Table 16, day 4 after administration, Tegafur in place of 5-FU, FGF as in Experimental Example 19): 103.1 ± 13.1%; Tumor weight ratio(%) ([1]; Table 17, day 4 after compound administration, Tegafur 400 mg/Kg, hEGF, hEGF-II, [Leu^21 ]-hEGF each 100 μg/Kg, RA 30 mg/Kg subcutaneous): 90.6 ± 11.5%"
"O=P1(N(CCCl)CCCl)NCCCO1 (stereo not shown) [Cyclophosphamide, cyclophosphamide]",,,,90.6 ± 7.6%,the same results,,,,,,,"Tumor weight (day 1 = 100) ([1]; Table 7, day 2, cyclophosphamide 200 mg/Kg, hEGF 100 μg/Kg subcutaneous on day 1 and day 3, average ± standard error of 8 mice): 145.2 ± 18.2; Tumor weight (day 1 = 100) ([1]; Table 7, day 3, cyclophosphamide 200 mg/Kg, hEGF 100 μg/Kg subcutaneous on day 1 and day 3, average ± standard error of 8 mice): 147.6 ± 13.7; Tumor weight (day 1 = 100) ([1]; Table 7, day 4, cyclophosphamide 200 mg/Kg, hEGF 100 μg/Kg subcutaneous on day 1 and day 3, average ± standard error of 8 mice): 102.4 ± 8.6; Tumor weight (day 1 = 100) ([1]; Table 7, day 5, cyclophosphamide 200 mg/Kg, hEGF 100 μg/Kg subcutaneous on day 1 and day 3, average ± standard error of 8 mice): 92.2 ± 5.1; Tumor weight (day 1 = 100) ([1]; Table 7, day 6, cyclophosphamide 200 mg/Kg, hEGF 100 μg/Kg subcutaneous on day 1 and day 3, average ± standard error of 8 mice): 108.5 ± 19.6; Tumor weight (day 1 = 100) ([1]; Table 7, day 7, cyclophosphamide 200 mg/Kg, hEGF 100 μg/Kg subcutaneous on day 1 and day 3, average ± standard error of 8 mice): 110.9 ± 21.3"
Insulin,,,,,,110.2,121.1,105.6,110.3,58.9,48.1,
"[Leu^21 ]-hEGF: derivative of hEGF with the 21st methionine from the N-terminal substituted with leucine (NSDSECPLSHDGYCLHDGVCLYIEALDKYACNCVVGYIGERCQYRDLKWWELR; not fully specified; Epidermal growth factor; UniProt P01133 971-1023, looked up, variant M21L)",,,,,,99.6,97.8,90.4,100.1,48.1,50.3,"tumor cell growth inhibition, same experiment as Experimental Example 4 ([1]; used in place of hEGF in combination with 5-FU): the same results; tumor cell growth inhibition, same experiment as Experimental Example 14 ([1]; used in place of hEGF in combination with Tegafur): the same results; antitumor action potentiating effect, same experiment as Experimental Example 9 ([1]; used in place of hEGF in combination with cisplatin): the same results; tumor cell growth inhibiting effect, same experiment as Experimental Example 15 ([1]; used in place of hEGF in combination with cyclophosphamide): the same results; antitumor effect potentiation, same experiment as Experimental Example 17 ([2]; used together with mytomycin C in place of cisplatin): the same results"
TGFα: human transforming growth factor α,,,,,,98.4,92.6,80.4,80.1,34.3,40.6,
